Consider three compounds from the NIST ThermoML archive (doi:10.1016/j.jct.2003.12.005).

The conditions of the data set: 101.3 kPa, Liquid.

± gives the expanded uncertainty stated by the source.

A word on the mass density: it is mass per unit of volume. By speed of sound is commonly meant the propagation velocity of pressure waves in the medium. A word on the viscosity: it is the internal friction of a fluid under shear. With `CCCCCCCC` [octane], the mass density is listed as 702.6 ± 0.3 kg/m3 (293.15 K), 698.5 ± 0.4 kg/m3 (298.15 K) and 694.5 ± 0.4 kg/m3 (303.15 K). Also, the speed of sound (293.15 K) was 1193 ± 2 m/s, the speed of sound (298.15 K) was 1173 ± 2 m/s and the speed of sound (303.15 K) was 1152 ± 2 m/s. Besides, the viscosity is on record as 0.538 ± 0.015 mPa·s (293.15 K), 0.506 ± 0.014 mPa·s (298.15 K) and 0.478 ± 0.014 mPa·s (303.15 K).
For the compound `CCCCCCCCCCCC` [dodecane], the mass density came to 748.5 ± 0.5 kg/m3 (293.15 K), 744.9 ± 0.5 kg/m3 (298.15 K) and 741.3 ± 0.5 kg/m3 (303.15 K). For the same compound, the speed of sound is, setting by setting: (293.15 K) 1297 ± 2 m/s; (298.15 K) 1278 ± 2 m/s; (303.15 K) 1259 ± 2 m/s. In addition, the viscosity is, setting by setting: (293.15 K) 1.454 ± 0.023 mPa·s; (298.15 K) 1.327 ± 0.021 mPa·s; (303.15 K) 1.219 ± 0.02 mPa·s.
As for `CCC(C)O` (configuration not stated) [butan-2-ol], for the setting “293.15 K”, the mass density is given as 806.8 ± 0.3 kg/m3, the speed of sound was 1230 ± 2 m/s and the viscosity is on record as 3.623 ± 0.086 mPa·s. Moreover, under “298.15 K”, the mass density stood at 802.7 ± 0.3 kg/m3, the speed of sound stood at 1212 ± 2 m/s and the viscosity came out at 2.995 ± 0.072 mPa·s. Under “303.15 K”, the mass density is 798.5 ± 0.3 kg/m3, the speed of sound came out at 1194 ± 2 m/s and the viscosity was 2.493 ± 0.061 mPa·s.
